# Test results from PMC7274485, “A symbiotic bacterium of shipworms produces a compound with broad spectrum anti-apicomplexan activity” (PLoS Pathogens, 2020).
# Entries after “also recorded” stand apart in the source; their conditions may differ.
# Key:
# [1] = system: extracellular T. gondii tachyzoites; assay: Extracellular T. gondii tachyzoites treated 2 hours, washed, then infection of HFF quantified by luciferase; assay type: cell-based, Toxoplasma gondii
# Procedure: Because we had tested the compound against intracellular parasites, it was unclear if trtE was exerting a direct effect on the parasites, or if trtE acted indirectly on the parasites by modulating host cell pathways. […] Growth of the parasites was measured 24 hours later by luciferase expression.
# To determine the direct effect of trtE on T. gondii, RH GFP/Luc tachyzoites that had exited from host cells were combined with trtE at varying concentrations and incubated at 37°C and 5% CO2 for 2 hours. Tachyzoites in 0.01% DMSO were run in parallel. The parasites were washed to remove compound and added to 96-well plates containing confluent HFFs. Growth was monitored 24 hours later using Bright-glo Luciferase assay system (Promega). Percent inhibition was calculated as ((luciferase reading DMSO treated parasites—luciferase reading of trtE treated parasites)/ luciferase reading DMSO treated parasites)*100.
# [2] = system: B. bigemina; assay: B. bigemina-infected erythrocyte proliferation, SYBR green incorporation; assay type: cell-based; conditions: Babesia bigemina, infected erythrocytes, 72 hours, read-out: EC50 against B. bigemina
# Procedure: B. bovis and B. bigemina inhibitor response assays were adapted from components of [79–81]. B. bovis and B. bigemina parasites were maintained in bovine erythrocytes under microaerophilic stationary phase conditions in vitro as described elsewhere. Prior to use in growth studies parasites were grown in erythrocytes from which leukocytes were depleted. Cultures were set up at 0.20% parasitized erythrocytes, in quadruplicate, in complete medium supplemented with trtE. Final concentration of DMSO in all cultures was 1%, and was consistent throughout. Following 72h growth under 90% nitrogen, 5% oxygen, 5% carbon dioxide cells were harvested by thorough resuspension, and transferred to a black, opaque 96-well plate. Cells were freeze-thawed at -80°C overnight, then mixed with an equal volume of SYBR Green lysis buffer. Lysis buffer was composed of 20 mM Tris, pH 7.5, 5 mM EDTA, 0.008% (w/v) saponin, 0.08% (v/v) NP40, and contained 0.2 μl 10,000x SYBR Green I dye ml^-1 (S7563; Invitrogen; Carlsbad, CA). Plates were incubated for one hour at room temperature in the dark prior to reading in a microplate reader, at 485 nm excitation and 528 nm emission wavelengths.
# [3] = system: C. parvum; assay: Immunofluorescence assay (anti-gp15) of C. parvum-infected HCT8 cells; assay type: cell-based, Cryptosporidium parvum; conditions: 60 nM trtE, 12 hours, HCT8 cells infected 8 hours
# Procedure: We had postulated that secondary metabolites generated by symbiotic bacteria of invertebrates might include compounds that target gregarines, an ancient group of apicomplexans found in most, and perhaps all, invertebrates. The only gregarines known to infect mammals are Cryptosporidium species, gastrointestinal parasites that cause diarrheal disease in humans and other mammals. HCT8 cells were infected with luciferase-expressing Cryptosporidium parvum parasites for 24 hours, then two-fold dilutions of trtE added to the infected cells. 48 hours after the addition of trtE, parasite growth was quantified by luciferase expression. […]
# For all IFAs, the investigator reading the slides and collecting images was blind to the sample treatment. […] 24 hours post treatment, infected cells were fixed with methanol, and parasites detected with rabbit anti-SAG1 antibody for T. gondii or rabbit anti-gp15 for C. parvum as we have described previously. […] This CE11 line is transiently transfected with a plasmid that expresses nanoluciferase from a B. divergens promoter and green fluorescence protein-blasticidin (gfp-bsd) from the selection cassette. […] Mean background levels were determined for individual images by assaying areas lacking cells, and the values were subtracted, whereas maximum fluorescent values were individually set as the upper limit. […]
structure (smiles),measurement,setting,value
"CC1CCC=CC=CCCC(O)CC(=O)CC2CCC(C)C3(O2)O[B-]24OC(C(=O)O1)C1(OC(CCC1C)CC(=O)CC(O)CCC=CC=CCCC(C)OC(=O)C3O2)O4 (stereo not shown) [trtE, tartrolon E]",EC50,"[1]; Toxoplasma gondii, RH strain tachyzoites treated 2 hours, washed, growth in HFF after 24 hours, read-out: EC50 against extracellular T. gondii tachyzoites",3.1 nM
same,Effect of excess K+ ions on trtE activity against extracellular tachyzoites,"[1]; addition of excess K+ ions, no positive control",had no effect
same,EC50,[2],9.3 nM
same,Morphology of trtE treated C. parvum (IFA),[3],no visible intact merozoites; also recorded: few discernable parasites
